Assay results: ChEMBL document CHEMBL4680337, “Synthetic 1,4-Naphthoquinones inhibit P2X7 receptors in murine neuroblastoma cells” (Bioorg Med Chem, 2021)
Blank lines part the entries; values can stand above or below the molecule they belong to. Activity calls are given as the source filed them. The rule behind the calls is not given here.

What was measured:
Format in all cases: cell-based
[1] = target: T1, P2X purinoceptor 7 (Mus musculus) (UniProt Q9Z1M0); assay: Antagonist activity at P2X7R in mouse N2a cells assessed as inhibition of ATP-induced ROS production at 50 uM incubated for 1 hr by using H2DCF-DA probe based fluorescence assay
T1 sequence (whole entry): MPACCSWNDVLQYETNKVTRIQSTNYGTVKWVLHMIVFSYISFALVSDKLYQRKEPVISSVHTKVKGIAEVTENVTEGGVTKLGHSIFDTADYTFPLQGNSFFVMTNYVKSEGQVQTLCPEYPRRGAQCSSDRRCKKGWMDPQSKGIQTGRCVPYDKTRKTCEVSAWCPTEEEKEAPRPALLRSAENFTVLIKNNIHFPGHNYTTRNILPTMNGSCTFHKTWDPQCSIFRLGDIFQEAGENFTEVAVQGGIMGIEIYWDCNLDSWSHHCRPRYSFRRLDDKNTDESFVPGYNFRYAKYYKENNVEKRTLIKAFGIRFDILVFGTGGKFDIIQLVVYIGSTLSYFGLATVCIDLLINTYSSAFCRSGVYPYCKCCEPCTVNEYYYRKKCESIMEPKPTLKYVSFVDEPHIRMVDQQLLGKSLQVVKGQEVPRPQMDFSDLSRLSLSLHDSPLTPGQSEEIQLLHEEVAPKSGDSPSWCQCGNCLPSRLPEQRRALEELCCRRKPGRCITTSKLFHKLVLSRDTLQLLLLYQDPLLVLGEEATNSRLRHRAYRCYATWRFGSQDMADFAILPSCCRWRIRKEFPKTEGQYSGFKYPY

[2] = target: T1, P2X purinoceptor 7 (Mus musculus); assay: Antagonist activity at P2X7R in mouse N2a cells assessed as inhibition of ATP-induced NO production at 50 uM incubated for 1 hr by using DAF-FM probe based fluorescence assay
[3] = target: T1, P2X purinoceptor 7 (Mus musculus); assay: Antagonist activity at P2X7R in mouse N2a cells assessed as reduction in ATP-induced calcium influx at 50 uM incubated for 1 hr by Fura-2AM dye based spectrofluorometry
[4] = target: T1, P2X purinoceptor 7 (Mus musculus); assay: Antagonist activity at P2X7R in mouse N2a cells assessed as reduction in ATP-induced calcium influx at 5 uM incubated for 1 hr by Fura-2AM dye based spectrofluorometry relative to control
N2a = assay: Cytotoxicity against mouse N2a cells assessed as reduction in cell viability incubated for 24 hrs by MTT assay
[5] = target: T1, P2X purinoceptor 7 (Mus musculus); assay: Antagonist activity at P2X7R in mouse N2a cells assessed as reduction in ATP-induced EtBr uptake by cells incubated for 1 hr by fluorescence based assay relative to control; settings: concentration not given here
[6] = target: T1, P2X purinoceptor 7 (Mus musculus); assay: Antagonist activity at P2X7R in mouse N2a cells assessed as reduction in ATP-induced YO-PRO-1 uptake by cells at 10 uM incubated for 1 hr by fluorescence based assay relative to control
[7] = target: T1, P2X purinoceptor 7 (Mus musculus); assay: Antagonist activity at P2X7R in mouse N2a cells assessed as reduction in ATP-induced YO-PRO-1 uptake by cells incubated for 1 hr by fluorescence based assay; settings: dose 0.1-10 µM
[8] = target: T1, P2X purinoceptor 7 (Mus musculus); assay: Antagonist activity at P2X7R in mouse N2a cells assessed as cytoprotective activity against ATP-induced cell death by measuring increase in cell viability at 0.1 to 5 uM incubated for 1 hr followed by ATP addition and measured after 48 hrs by MTT assay; settings: dose 0.1-5 µM, time 49.0 hrs
[9] = target: T1, P2X purinoceptor 7 (Mus musculus); assay: Antagonist activity at P2X7R in mouse N2a cells assessed as inhibition of ATP-induced NO production by measuring NO level at 1 uM incubated for 1 hr by using DAF-FM probe based fluorescence assay relative to control; set-up: scale not given: the % may be the effect or the level left
[10] = target: T1, P2X purinoceptor 7 (Mus musculus); assay: Antagonist activity at P2X7R in mouse N2a cells assessed as inhibition of ATP-induced ROS production at 1 uM incubated for 1 hr by using H2DCF-DA probe based fluorescence assay relative to control
[11] = target: T1, P2X purinoceptor 7 (Mus musculus); assay: Antagonist activity at P2X7R in mouse N2a cells assessed as inhibition of ATP-induced NO production at 0.1 to 10 uM incubated for 1 hr by using DAF-FM probe based fluorescence assay; settings: dose 0.1-10 µM
[12] = target: T1, P2X purinoceptor 7 (Mus musculus); assay: Antagonist activity at P2X7R in mouse N2a cells assessed as cytoprotective activity against ATP-induced cell death by measuring increase in cell viability at 1 uM incubated for 1 hr followed by ATP addition and measured after 48 hrs by MTT assay relative to control; settings: time 49.0 hrs
[13] = target: T1, P2X purinoceptor 7 (Mus musculus); assay: Antagonist activity at P2X7R in mouse N2a cells assessed as inhibition of ATP-induced ROS production at 0.1 uM incubated for 1 hr by using H2DCF-DA probe based fluorescence assay relative to control
[14] = target: T1, P2X purinoceptor 7 (Mus musculus); assay: Antagonist activity at P2X7R in mouse N2a cells assessed as reduction in ATP-induced calcium influx at 5 uM incubated for 1 hr by Fluo-3AM dye based laser scanning microscopy
[15] = target: T1, P2X purinoceptor 7 (Mus musculus); assay: Antagonist activity at P2X7R in mouse N2a cells assessed as cytoprotective activity against ATP-induced cell death by measuring increase in cell viability at 10 uM incubated for 1 hr followed by ATP addition and measured after 48 hrs by MTT assay relative to control; settings: time 49.0 hrs
[16] = target: T1, P2X purinoceptor 7 (Mus musculus); assay: Antagonist activity at P2X7R in mouse N2a cells assessed as inhibition of ATP-induced ROS production at 10 uM incubated for 1 hr by using H2DCF-DA probe based fluorescence assay
[17] = target: T1, P2X purinoceptor 7 (Mus musculus); assay: Antagonist activity at P2X7R in mouse N2a cells assessed as inhibition of ATP-induced NO production at 10 uM incubated for 1 hr by using DAF-FM probe based fluorescence assay
[18] = target: T1, P2X purinoceptor 7 (Mus musculus); assay: Antagonist activity at P2X7R in mouse N2a cells assessed as reduction in ATP-induced calcium influx at 10 uM incubated for 1 hr by Fura-2AM dye based spectrofluorometry relative to control
[19] = target: T1, P2X purinoceptor 7 (Mus musculus); assay: Antagonist activity at P2X7R in mouse N2a cells assessed as reduction in ATP-induced EtBr uptake by cells at 0.1 to 10 uM incubated for 1 hr by fluorescence based assay; settings: dose 0.1-10 µM
[20] = target: T1, P2X purinoceptor 7 (Mus musculus); assay: Antagonist activity at P2X7R in mouse N2a cells assessed as reduction in ATP-induced YO-PRO-1 uptake by cells at 5 uM incubated for 1 hr by fluorescence imaging based laser scanning microscopic analysis
[21] = target: T1, P2X purinoceptor 7 (Mus musculus); assay: Antagonist activity at P2X7R in mouse N2a cells assessed as inhibition of ATP-induced NO production by measuring NO level at 10 uM incubated for 1 hr by using DAF-FM probe based fluorescence assay relative to control; set-up: scale not given: the % may be the effect or the level left

inhibition [4]: 90%
Structure (SMILES): Clc1cccc(-c2nnnn2Cc2cccnc2)c1Cl

inhibition [5]: 25.2%
inhibition [6]: 54.1%
inhibition [7]: Dose-dependent effect
Activity [9]: 56.8%
inhibition [10]: 70.9%
inhibition [4]: inactive
Structure (SMILES): COC1=C(S[C@@H]2O[C@H](COC(C)=O)[C@@H](OC(C)=O)[C@H](OC(C)=O)[C@H]2OC(C)=O)C(=O)c2c(O)c(C)c(C)c(O)c2C1=O
EC50 (N2a): 17.8 µM
Activity [8]: inactive

inhibition [5]: 18.3%
inhibition [6]: 20.7%
inhibition [14]: Active
Activity [9]: 48.5%
inhibition [10]: 58.4%
inhibition [4]: 36%
Structure (SMILES): Cc1c(C)c(O)c2c(c1O)C(=O)C1=C(S[C@H]3O[C@@H](CO)[C@H](O)[C@@H](O)[C@@H]3O1)C2=O
EC50 (N2a): 22.6 µM
Activity [8]: inactive

inhibition [19]: Active
inhibition [5]: 42.6%
inhibition [20]: Active
inhibition [6]: 46.2%
inhibition [7]: Dose-dependent effect
Activity [21]: 44.5%
inhibition [13]: 66.3%
inhibition [4]: 32.7%
Structure (SMILES): O=C1C2=C(S[C@H]3O[C@@H](CO)[C@H](O)[C@@H](O)[C@@H]3O2)C(=O)c2ccccc21
EC50 (N2a): 29.5 µM
Activity [12]: 19.6%

Second part, the molecule before the results:

Structure (SMILES): Cc1cc(/N=N/c2ccc(S(=O)(=O)O)cc2S(=O)(=O)O)c(COP(=O)(O)O)c(C=O)c1O
inhibition [1]: Active
inhibition [2]: Active
inhibition [3]: Active

Structure (SMILES): COC1=C(S[C@@H]2O[C@H](CO)[C@@H](O)[C@H](O)[C@H]2O)C(=O)c2ccccc2C1=O
EC50 (N2a): 75.2 µM
inhibition [5]: 34.8%
inhibition [11]: inactive
inhibition [6]: 60.9%
inhibition [7]: Dose-dependent effect
Activity [12]: 22.2%
inhibition [13]: 69.8%
inhibition [4]: 15.1%

Structure (SMILES): CCOc1ccc(Nc2ccc(/C(=C3C=C/C(=[N+](/CC)Cc4cccc(S(=O)(=O)[O-])c4)C=C/3C)c3ccc(N(CC)Cc4cccc(S(=O)(=O)O)c4)cc3C)cc2)cc1
Activity [15]: 14.6%
inhibition [16]: Active
inhibition [6]: Active
inhibition [17]: Active
inhibition [18]: 46%
